Source: article PMC9569420 (Communications Biology, 2022)

Legend:
[1] = biological target: T1, ALK2/ACVR1 (Homo sapiens, UniProt Q04771); assay: HotSpot kinase assay; format: biochemical; conditions: read-out: % Enzyme Activity (relative to DMSO controls)
T1 construct: purchased Reaction Biology Corporation

[2] = biological target: T2, ALK4/ACVR1B (Homo sapiens, UniProt P36896); assay: HotSpot kinase assay; format: biochemical; conditions: read-out: % Enzyme Activity (relative to DMSO controls)
T2 construct: purchased Reaction Biology Corporation

[3] = biological target: T3, ASK1/MAP3K5 (Homo sapiens, UniProt Q99683); assay: HotSpot kinase assay; format: biochemical; conditions: read-out: % Enzyme Activity (relative to DMSO controls)
T3 construct: purchased Reaction Biology Corporation

[4] = biological target: T4, AXL (Homo sapiens, UniProt P30530); assay: HotSpot kinase assay; format: biochemical; conditions: read-out: % Enzyme Activity (relative to DMSO controls)
T4 construct: purchased Reaction Biology Corporation

[5] = biological target: T5, BRSK1 (Homo sapiens, UniProt Q8TDC3); assay: HotSpot kinase assay; format: biochemical; conditions: read-out: % Enzyme Activity (relative to DMSO controls)
T5 construct: purchased Reaction Biology Corporation
T5 sequence (Q8TDC3 whole entry): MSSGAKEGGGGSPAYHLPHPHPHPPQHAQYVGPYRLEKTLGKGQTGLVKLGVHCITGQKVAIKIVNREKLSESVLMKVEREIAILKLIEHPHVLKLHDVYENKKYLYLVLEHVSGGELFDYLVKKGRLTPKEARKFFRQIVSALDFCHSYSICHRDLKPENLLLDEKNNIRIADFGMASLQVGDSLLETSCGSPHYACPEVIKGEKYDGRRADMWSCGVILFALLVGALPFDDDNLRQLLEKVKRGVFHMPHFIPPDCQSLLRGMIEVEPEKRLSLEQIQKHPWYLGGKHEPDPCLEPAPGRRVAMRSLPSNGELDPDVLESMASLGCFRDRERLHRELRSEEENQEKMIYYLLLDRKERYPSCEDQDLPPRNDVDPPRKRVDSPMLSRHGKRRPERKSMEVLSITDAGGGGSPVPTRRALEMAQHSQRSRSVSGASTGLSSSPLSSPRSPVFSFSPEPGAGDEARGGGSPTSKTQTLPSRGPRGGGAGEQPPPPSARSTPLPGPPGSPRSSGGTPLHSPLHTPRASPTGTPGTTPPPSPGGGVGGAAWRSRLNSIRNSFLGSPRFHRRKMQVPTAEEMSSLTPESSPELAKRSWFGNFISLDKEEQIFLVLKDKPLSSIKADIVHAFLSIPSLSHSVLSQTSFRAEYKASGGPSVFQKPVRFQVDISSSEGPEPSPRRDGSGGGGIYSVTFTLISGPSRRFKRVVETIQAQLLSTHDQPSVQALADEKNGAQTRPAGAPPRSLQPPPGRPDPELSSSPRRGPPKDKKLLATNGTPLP

[6] = biological target: T6, CAMK2d (Homo sapiens, UniProt Q13557); assay: HotSpot kinase assay; format: biochemical; conditions: read-out: % Enzyme Activity (relative to DMSO controls)
T6 construct: purchased Reaction Biology Corporation

[7] = biological target: T7, CDK18/cyclin Y (PCTK3) (Homo sapiens, UniProt Q07002); assay: HotSpot kinase assay; format: biochemical; conditions: read-out: % Enzyme Activity (relative to DMSO controls)
T7 construct: purchased Reaction Biology Corporation

[8] = biological target: T8, CDK2/cyclin A1 (Homo sapiens, UniProt P24941); assay: HotSpot kinase assay; format: biochemical; conditions: read-out: % Enzyme Activity (relative to DMSO controls)
T8 construct: purchased Reaction Biology Corporation

[9] = biological target: T9, CK1g2 (Homo sapiens, UniProt P78368); assay: HotSpot kinase assay; format: biochemical; conditions: read-out: % Enzyme Activity (relative to DMSO controls)
T9 construct: purchased Reaction Biology Corporation
T9 sequence (P78368 whole entry): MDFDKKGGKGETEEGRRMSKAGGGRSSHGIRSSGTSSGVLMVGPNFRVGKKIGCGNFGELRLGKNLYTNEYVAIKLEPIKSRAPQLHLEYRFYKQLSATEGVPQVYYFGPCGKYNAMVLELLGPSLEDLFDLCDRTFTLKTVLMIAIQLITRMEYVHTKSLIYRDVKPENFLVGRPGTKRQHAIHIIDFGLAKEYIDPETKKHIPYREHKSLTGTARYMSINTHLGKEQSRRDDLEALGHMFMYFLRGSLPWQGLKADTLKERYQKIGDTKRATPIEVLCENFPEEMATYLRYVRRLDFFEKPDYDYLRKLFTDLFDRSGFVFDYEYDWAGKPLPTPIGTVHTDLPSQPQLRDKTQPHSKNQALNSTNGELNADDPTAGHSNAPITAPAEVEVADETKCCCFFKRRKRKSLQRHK

[10] = biological target: T10, CK2a2 (Homo sapiens, UniProt P19784); assay: HotSpot kinase assay; format: biochemical; conditions: read-out: % Enzyme Activity (relative to DMSO controls)
T10 construct: purchased Reaction Biology Corporation
T10 sequence (P19784 whole entry): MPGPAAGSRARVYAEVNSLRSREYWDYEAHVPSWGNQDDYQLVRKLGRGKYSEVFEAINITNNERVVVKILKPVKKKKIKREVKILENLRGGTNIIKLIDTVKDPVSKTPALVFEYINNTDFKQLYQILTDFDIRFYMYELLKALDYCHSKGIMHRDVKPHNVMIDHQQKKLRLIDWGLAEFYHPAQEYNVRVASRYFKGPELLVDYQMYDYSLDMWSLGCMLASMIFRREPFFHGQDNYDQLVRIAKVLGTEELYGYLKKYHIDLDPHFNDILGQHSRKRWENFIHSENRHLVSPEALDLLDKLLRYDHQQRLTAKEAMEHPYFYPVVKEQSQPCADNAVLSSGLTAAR

[11] = biological target: T11, CSK (Homo sapiens, UniProt P41240); assay: HotSpot kinase assay; format: biochemical; conditions: read-out: % Enzyme Activity (relative to DMSO controls)
T11 construct: purchased Reaction Biology Corporation

[12] = biological target: T12, EPHB2 (Homo sapiens, UniProt P29323); assay: HotSpot kinase assay; format: biochemical; conditions: read-out: % Enzyme Activity (relative to DMSO controls)
T12 construct: purchased Reaction Biology Corporation

[13] = biological target: T13, FER (Homo sapiens, UniProt P16591); assay: HotSpot kinase assay; format: biochemical; conditions: read-out: % Enzyme Activity (relative to DMSO controls)
T13 construct: purchased Reaction Biology Corporation
T13 sequence (P16591 whole entry): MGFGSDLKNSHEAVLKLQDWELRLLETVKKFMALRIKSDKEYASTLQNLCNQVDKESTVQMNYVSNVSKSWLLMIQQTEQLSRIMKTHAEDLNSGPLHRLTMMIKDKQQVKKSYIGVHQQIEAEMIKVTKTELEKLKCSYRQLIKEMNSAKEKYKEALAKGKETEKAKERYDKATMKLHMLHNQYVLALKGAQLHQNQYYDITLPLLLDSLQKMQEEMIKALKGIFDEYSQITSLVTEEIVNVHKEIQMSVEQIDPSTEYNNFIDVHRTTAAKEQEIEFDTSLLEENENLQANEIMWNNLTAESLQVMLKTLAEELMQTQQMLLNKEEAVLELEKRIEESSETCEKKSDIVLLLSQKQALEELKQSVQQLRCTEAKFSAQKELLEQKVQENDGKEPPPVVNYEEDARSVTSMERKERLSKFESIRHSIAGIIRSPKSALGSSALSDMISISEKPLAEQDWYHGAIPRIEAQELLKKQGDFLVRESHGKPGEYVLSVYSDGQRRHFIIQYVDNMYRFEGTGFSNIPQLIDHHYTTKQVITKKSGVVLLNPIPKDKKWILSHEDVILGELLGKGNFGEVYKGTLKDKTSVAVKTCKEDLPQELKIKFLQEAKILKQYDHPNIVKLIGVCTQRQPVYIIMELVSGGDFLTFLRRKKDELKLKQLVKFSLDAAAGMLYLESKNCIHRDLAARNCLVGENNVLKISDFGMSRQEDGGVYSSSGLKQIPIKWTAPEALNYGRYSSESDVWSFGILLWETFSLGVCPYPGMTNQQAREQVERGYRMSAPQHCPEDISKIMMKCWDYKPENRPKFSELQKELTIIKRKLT

[14] = biological target: T14, FYN (Homo sapiens, UniProt P06241); assay: HotSpot kinase assay; format: biochemical; conditions: read-out: % Enzyme Activity (relative to DMSO controls)
T14 construct: purchased Reaction Biology Corporation

[15] = biological target: T15, GRK6 (Homo sapiens, UniProt P43250); assay: HotSpot kinase assay; format: biochemical; conditions: read-out: % Enzyme Activity (relative to DMSO controls)
T15 construct: purchased Reaction Biology Corporation
T15 sequence (P43250 whole entry): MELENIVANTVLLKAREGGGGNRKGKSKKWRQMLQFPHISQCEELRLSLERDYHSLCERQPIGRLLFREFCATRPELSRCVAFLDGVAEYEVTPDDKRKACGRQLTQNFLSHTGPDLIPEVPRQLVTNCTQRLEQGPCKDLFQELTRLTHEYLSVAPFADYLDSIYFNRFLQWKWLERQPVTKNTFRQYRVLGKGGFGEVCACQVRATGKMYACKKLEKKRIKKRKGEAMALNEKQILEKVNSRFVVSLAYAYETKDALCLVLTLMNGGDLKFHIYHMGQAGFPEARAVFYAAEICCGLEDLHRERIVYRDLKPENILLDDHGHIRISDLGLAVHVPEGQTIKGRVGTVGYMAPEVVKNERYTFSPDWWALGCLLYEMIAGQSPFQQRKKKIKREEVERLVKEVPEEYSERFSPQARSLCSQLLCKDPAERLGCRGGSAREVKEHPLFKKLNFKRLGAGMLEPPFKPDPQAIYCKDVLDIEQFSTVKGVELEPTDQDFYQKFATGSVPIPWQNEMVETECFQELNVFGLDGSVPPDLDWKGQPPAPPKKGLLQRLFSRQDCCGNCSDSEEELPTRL

[16] = biological target: T16, IGF1R (Homo sapiens, UniProt P08069); assay: HotSpot kinase assay; format: biochemical; conditions: read-out: % Enzyme Activity (relative to DMSO controls)
T16 construct: purchased Reaction Biology Corporation

[17] = biological target: T17, IR (Homo sapiens, UniProt P06213); assay: biochemical
T17 construct: purchased Reaction Biology Corporation
T17 sequence (P06213 980-1382 limits assumed): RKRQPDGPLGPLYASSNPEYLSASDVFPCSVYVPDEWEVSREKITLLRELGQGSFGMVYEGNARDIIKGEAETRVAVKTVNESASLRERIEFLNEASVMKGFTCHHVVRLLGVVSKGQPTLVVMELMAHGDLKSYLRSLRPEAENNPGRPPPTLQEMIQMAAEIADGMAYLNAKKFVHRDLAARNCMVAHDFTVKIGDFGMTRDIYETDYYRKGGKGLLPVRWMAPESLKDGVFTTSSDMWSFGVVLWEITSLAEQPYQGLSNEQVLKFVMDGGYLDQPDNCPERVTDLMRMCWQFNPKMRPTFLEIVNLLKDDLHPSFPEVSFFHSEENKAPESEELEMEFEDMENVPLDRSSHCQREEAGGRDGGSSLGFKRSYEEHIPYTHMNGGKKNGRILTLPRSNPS

[18] = biological target: T18, LKB1 (Homo sapiens, UniProt Q15831); assay: HotSpot kinase assay; format: biochemical; conditions: read-out: % Enzyme Activity (relative to DMSO controls)
T18 construct: purchased Reaction Biology Corporation

[19] = biological target: T19, MARK1 (Homo sapiens, UniProt Q9P0L2); assay: HotSpot kinase assay; format: biochemical; conditions: read-out: % Enzyme Activity (relative to DMSO controls)
T19 construct: purchased Reaction Biology Corporation

[20] = biological target: T20, MEKK1 (Homo sapiens, UniProt Q13233); assay: HotSpot kinase assay; format: biochemical; conditions: read-out: % Enzyme Activity (relative to DMSO controls)
T20 construct: purchased Reaction Biology Corporation

[21] = biological target: T21, MKK4 (Homo sapiens, UniProt P45985); assay: HotSpot kinase assay; format: biochemical; conditions: read-out: % Enzyme Activity (relative to DMSO controls)
T21 construct: purchased Reaction Biology Corporation
T21 sequence (P45985 whole entry): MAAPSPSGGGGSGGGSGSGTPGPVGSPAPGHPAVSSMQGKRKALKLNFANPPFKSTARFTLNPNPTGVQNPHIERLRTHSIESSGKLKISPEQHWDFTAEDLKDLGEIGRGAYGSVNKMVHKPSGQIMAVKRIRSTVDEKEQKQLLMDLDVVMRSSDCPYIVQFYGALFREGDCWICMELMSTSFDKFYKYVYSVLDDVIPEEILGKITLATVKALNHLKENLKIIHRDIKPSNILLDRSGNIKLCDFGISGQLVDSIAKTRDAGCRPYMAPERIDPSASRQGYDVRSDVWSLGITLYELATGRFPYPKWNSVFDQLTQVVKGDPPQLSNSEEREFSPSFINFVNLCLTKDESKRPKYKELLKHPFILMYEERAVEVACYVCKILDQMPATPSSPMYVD

[22] = biological target: T22, MKK6 (Homo sapiens, UniProt P52564); assay: HotSpot kinase assay; format: biochemical; conditions: read-out: % Enzyme Activity (relative to DMSO controls)
T22 construct: purchased Reaction Biology Corporation

[23] = biological target: T23, MSSK1/STK23 (Homo sapiens, UniProt Q9UPE1); assay: HotSpot kinase assay; format: biochemical; conditions: read-out: % Enzyme Activity (relative to DMSO controls)
T23 construct: purchased Reaction Biology Corporation

[24] = biological target: T24, MYLK4 (Homo sapiens, UniProt Q86YV6); assay: HotSpot kinase assay; format: biochemical; conditions: read-out: % Enzyme Activity (relative to DMSO controls)
T24 construct: purchased Reaction Biology Corporation

[25] = biological target: T25, NLK (Homo sapiens, UniProt Q9UBE8); assay: HotSpot kinase assay; format: biochemical; conditions: read-out: % Enzyme Activity (relative to DMSO controls)
T25 construct: purchased Reaction Biology Corporation

[26] = biological target: T26, P38d/MAPK13 (Homo sapiens, UniProt O15264); assay: HotSpot kinase assay; format: biochemical; conditions: read-out: % Enzyme Activity (relative to DMSO controls)
T26 construct: purchased Reaction Biology Corporation

[27] = biological target: T27, PAK5 (Homo sapiens, UniProt Q9P286); assay: HotSpot kinase assay; format: biochemical; conditions: read-out: % Enzyme Activity (relative to DMSO controls)
T27 construct: purchased Reaction Biology Corporation

[28] = biological target: T28, PDGFRb (Homo sapiens, UniProt P09619); assay: HotSpot kinase assay; format: biochemical; conditions: read-out: % Enzyme Activity (relative to DMSO controls)
T28 construct: purchased Reaction Biology Corporation
T28 sequence (P09619 33-1106): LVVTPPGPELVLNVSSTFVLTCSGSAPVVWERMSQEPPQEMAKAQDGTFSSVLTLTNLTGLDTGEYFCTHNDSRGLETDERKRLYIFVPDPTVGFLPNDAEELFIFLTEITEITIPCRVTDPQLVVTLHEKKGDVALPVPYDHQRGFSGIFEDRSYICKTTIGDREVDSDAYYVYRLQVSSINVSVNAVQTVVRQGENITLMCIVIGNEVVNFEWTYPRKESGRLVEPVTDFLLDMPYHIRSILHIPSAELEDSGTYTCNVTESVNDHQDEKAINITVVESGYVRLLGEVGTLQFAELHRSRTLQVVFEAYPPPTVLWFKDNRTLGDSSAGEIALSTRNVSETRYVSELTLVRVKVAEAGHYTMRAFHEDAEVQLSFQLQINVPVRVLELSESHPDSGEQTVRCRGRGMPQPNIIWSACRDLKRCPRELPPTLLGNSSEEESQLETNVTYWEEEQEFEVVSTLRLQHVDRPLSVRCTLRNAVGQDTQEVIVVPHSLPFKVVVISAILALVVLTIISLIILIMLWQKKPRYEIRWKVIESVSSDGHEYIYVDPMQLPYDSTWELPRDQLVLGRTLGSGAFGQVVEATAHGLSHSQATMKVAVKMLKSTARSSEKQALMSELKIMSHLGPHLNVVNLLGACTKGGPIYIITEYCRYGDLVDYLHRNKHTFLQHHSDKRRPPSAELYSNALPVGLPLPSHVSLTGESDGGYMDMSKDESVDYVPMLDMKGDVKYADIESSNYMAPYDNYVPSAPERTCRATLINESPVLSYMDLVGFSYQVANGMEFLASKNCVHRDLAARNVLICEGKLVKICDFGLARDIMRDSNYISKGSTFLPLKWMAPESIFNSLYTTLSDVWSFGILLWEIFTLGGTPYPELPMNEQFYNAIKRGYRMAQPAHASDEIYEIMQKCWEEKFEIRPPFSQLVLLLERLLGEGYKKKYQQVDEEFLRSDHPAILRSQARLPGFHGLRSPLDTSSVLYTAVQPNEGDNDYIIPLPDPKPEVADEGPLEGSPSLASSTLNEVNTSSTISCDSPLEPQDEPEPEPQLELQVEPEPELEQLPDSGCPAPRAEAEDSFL

[29] = biological target: T29, PKCb2 (Homo sapiens, UniProt P05771); assay: HotSpot kinase assay; format: biochemical; conditions: read-out: % Enzyme Activity (relative to DMSO controls)
T29 construct: purchased Reaction Biology Corporation

[30] = biological target: T30, SBK1 (Homo sapiens, UniProt Q52WX2); assay: HotSpot kinase assay; format: biochemical; conditions: read-out: % Enzyme Activity (relative to DMSO controls)
T30 construct: purchased Reaction Biology Corporation

[31] = biological target: T31, SGK3/SGKL (Homo sapiens, UniProt Q96BR1); assay: HotSpot kinase assay; format: biochemical; conditions: read-out: % Enzyme Activity (relative to DMSO controls)
T31 construct: purchased Reaction Biology Corporation

[32] = biological target: T32, STK22D/TSSK1 (Homo sapiens, UniProt Q9BXA7); assay: HotSpot kinase assay; format: biochemical; conditions: read-out: % Enzyme Activity (relative to DMSO controls)
T32 construct: purchased Reaction Biology Corporation

[33] = biological target: T33, TSSK3/STK22C (Homo sapiens, UniProt Q96PN8); assay: HotSpot kinase assay; format: biochemical; conditions: read-out: % Enzyme Activity (relative to DMSO controls)
T33 construct: purchased Reaction Biology Corporation

[34] = biological target: T34, WNK2 (Homo sapiens, UniProt Q9Y3S1); assay: HotSpot kinase assay; format: biochemical; conditions: read-out: % Enzyme Activity (relative to DMSO controls)
T34 construct: purchased Reaction Biology Corporation

[35] = test system: HaCat cells; assay: apoptosis assay (activated caspases, SYTOX Green); format: cell-based, human; conditions: 10µM
Protocol: Cell proliferation and viability were determined using the Cell Titer 96 Aqueous One Solution and optical density was determined using a SpectraMax M5e Molecular Devices multidetection microplate reader. […] The cells were then fixed and stained for activated caspases (red) and SYTOX Green (for integrity of plasma membrane) by Image-iT^TM LIVE red Poly Caspase Detection kit. Nuclei were stained with Hoechst. Images were acquired by laser confocal microscope ZeissLive/DuoScan equipped with oil immersion objectives 63 × 1.1 and captured in an optical slice of 0.37 µm with appropriate filters. Alternatively, immunoblots were prepared and probed with antibodies to cleaved PARP-1 or cleaved caspase 8.

[36] = test system: PtdS and Akt; assay: translocation of PtdS and Akt to the outer leaflet (microscopy), HSV-2 infected HaCat; format: cell-based, human; conditions: 10µM
[37] = test system: Akt, PDPK1, PLCγ
[38] = in vitro; conditions: human, Huh-7.5 cells infected with SARS-CoV-2

Question: Which results are given for CO[C@@H]1[C@H](N(C)C(=O)CCC(=O)NCc2cn(CCCS(=O)(=O)O)nn2)C[C@H]2O[C@]1(C)n1c3ccccc3c3c4c(c5c6ccccc6n2c5c31)C(=O)NC4 [CIMSS]?
Answer: remaining activity at 10 µM [1]: 72.7%; remaining activity at 10 µM [2]: 58.3%; remaining activity at 10 µM [3]: 6.25%; remaining activity at 10 µM [4]: 3.61%; remaining activity at 10 µM [5]: 1.55%; remaining activity at 10 µM [6]: 1.33%; remaining activity at 10 µM [7]: 41.3%; remaining activity at 10 µM [8]: 7.95%; remaining activity at 10 µM [9]: 98.5%; remaining activity at 10 µM [10]: 44.6%; remaining activity at 10 µM [11]: 2.41%; remaining activity at 10 µM [12]: 28.5%; remaining activity at 10 µM [13]: 0.37%; remaining activity at 10 µM [14]: 2.59%; remaining activity at 10 µM [15]: 8.36%; remaining activity at 10 µM [16]: 6.72%; IC50 ([17]; Supplementary Table 1, Insulin Receptor, read-out: IC50 (Molar concentration)): 803 nM; remaining activity at 10 µM ([17]; read-out: % Enzyme Activity (relative to DMSO controls), 10µM): 15.8%; remaining activity at 10 µM [18]: 38%; remaining activity at 10 µM [19]: 1.18%; remaining activity at 10 µM [20]: 67%; remaining activity at 10 µM [21]: 99%; remaining activity at 10 µM [22]: 59.7%; remaining activity at 10 µM [23]: 67.7%; remaining activity at 10 µM [24]: 6.48%; remaining activity at 10 µM [25]: 73%; remaining activity at 10 µM [26]: 74.7%; remaining activity at 10 µM [27]: 7.72%; remaining activity at 10 µM [28]: 1.9%; remaining activity at 10 µM [29]: 1.71%; remaining activity at 10 µM [30]: 78.8%; remaining activity at 10 µM [31]: 59.6%; remaining activity at 10 µM [32]: 2.71%; remaining activity at 10 µM [33]: 62.2%; remaining activity at 10 µM [34]: 71.9%; induction of apoptosis [35]: did not induce apoptosis; translocation of PtdS and Akt to the outer leaflet of the plasma membrane [36]: did not block; levels of phosphorylated Akt (serine 473 and threonine 308) in non-permeabilized cells ([37]; 10µM): reduce levels; phosphorylation of PDPK1 and PLCγ ([37]; 10 µM, 15 and 30 min following viral infection): inhibited; viability at 24 h, 0.78125 µM [38]: 84.7%; viability at 24 h, 1.5625 µM [38]: 85.5%; viability at 24 h, 3.125 µM [38]: 87.6%; viability at 24 h, 25 µM [38]: 87.9%; viability at 24 h, 50 µM [38]: 97.2%; viability at 72 h, 0.78125 µM [38]: 94.8%; viability at 72 h, 25 µM [38]: 80.4%; viability at 72 h, 50 µM [38]: 70.1%
